In US8513270B2, “Substituted heterocycles as Janus kinase inhibitors” (Incyte Corporation, priority 2006, dated 2013):
Where a name gives a salt, the structure may show the parent alone.

Assays:
[1] = target: T1, human JAK2 (a.a. 828-1132) (Homo sapiens, UniProt O60674); assay: In vitro JAK kinase assay (HTRF), JAK2; type: biochemical; conditions: JAK2, 30 μM ATP; read-out: EXAMPLE A HTS-JAK2 HTRF-2 IC50
T1 construct: JAK2 (a.a. 828-1132); His tag (N); made in house; host or cells: insect cells (baculovirus)
T1 sequence (O60674 828-1132): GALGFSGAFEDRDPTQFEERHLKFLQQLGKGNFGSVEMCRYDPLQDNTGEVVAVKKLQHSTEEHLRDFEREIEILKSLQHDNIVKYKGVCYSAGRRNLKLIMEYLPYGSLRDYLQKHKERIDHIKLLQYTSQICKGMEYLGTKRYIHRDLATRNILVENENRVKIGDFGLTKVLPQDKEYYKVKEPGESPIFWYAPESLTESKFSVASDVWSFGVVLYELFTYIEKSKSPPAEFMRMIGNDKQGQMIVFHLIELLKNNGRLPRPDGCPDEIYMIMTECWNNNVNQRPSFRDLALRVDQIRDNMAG
Procedure: (§1) Compounds herein were tested for inhibitory activity of JAK targets according to the following in vitro assay described in Park et al., Analytical Biochemistry 1999, 269, 94-104. The catalytic domains of human JAK1 (a.a. 837-1142), JAK2 (a.a. 828-1132) and JAK3 (a.a. 781-1124) with an N-terminal His tag were expressed using baculovirus in insect cells and purified. The catalytic activity of JAK1, JAK2 or JAK3 was assayed by measuring the phosphorylation of a biotinylated peptide. The phosphorylated peptide was detected by homogenous time resolved fluorescence (HTRF). IC50s of compounds were measured for each kinase in the reactions that contain the enzyme, ATP and 500 nM peptide in 50 mM Tris (pH 7.8) buffer with 100 mM NaCl, 5 mM DTT, and 0.1 mg/mL (0.01%) BSA. The ATP concentration in the reactions was 90 μM for JAK1, 30 μM for JAK2 and 3 μM for JAK3. Reactions were carried out at room temperature for 1 hr and then stopped with 20 μL 45 mM EDTA, 300 nM SA-APC, 6 nM Eu—Py20 in assay buffer (Perkin Elmer, Boston, Mass.). Binding to the Europium labeled antibody took place for 40 minutes and HTRF signal was measured on a Fusion plate reader (Perkin Elmer, Boston, Mass.).

[2] = system: JAK2_INA61 (cancer cell line dependent on cytokines and JAK/STAT signal transduction); assay: Cellular assay: viability of cytokine-dependent cancer cell line (CellTiter-Glo); type: cell-based; conditions: 72 hours, read-out: EXAMPLE B JAK2_INA61 IC50
Procedure: One or more compounds herein were tested for inhibitory activity of JAK targets according to at least one of the following cellular assays.
Compounds were added to the cells in DMSO/media (final concentration 0.2% DMSO) and incubated for 72 hours at 37° C., 5% CO2. The effect of compound on cell viability was assessed using the CellTiter-Glo Luminescent Cell Viability Assay (Promega) followed by TopCount (Perkin Elmer, Boston, Mass.) quantitation. Potential off-target effects of compounds were measured in parallel using a non-JAK driven cell line with the same assay readout. […] All experiments were performed in duplicate.

[3] = target: T2, human JAK3 (a.a. 781-1124) (Homo sapiens, UniProt P52333); assay: In vitro JAK kinase assay (HTRF), JAK3; type: biochemical; conditions: JAK3, 3 μM ATP; read-out: EXAMPLE A JAK2-JAK3 HTRF-2 IC50
T2 construct: JAK3 (a.a. 781-1124); His tag (N); made in house; host or cells: insect cells (baculovirus)
T2 sequence (P52333 781-1124): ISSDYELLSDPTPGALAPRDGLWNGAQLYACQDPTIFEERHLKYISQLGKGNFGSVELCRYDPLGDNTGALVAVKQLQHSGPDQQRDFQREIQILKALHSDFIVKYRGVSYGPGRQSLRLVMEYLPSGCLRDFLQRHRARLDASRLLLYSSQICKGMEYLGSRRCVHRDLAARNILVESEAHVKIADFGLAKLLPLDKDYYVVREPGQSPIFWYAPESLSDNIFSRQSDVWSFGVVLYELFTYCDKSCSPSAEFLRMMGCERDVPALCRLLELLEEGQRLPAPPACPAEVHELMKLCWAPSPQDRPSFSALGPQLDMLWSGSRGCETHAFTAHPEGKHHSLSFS
Procedure: as §1

[4] = target: T3, human JAK1 (a.a. 837-1142) (Homo sapiens, UniProt P23458); assay: In vitro JAK kinase assay (HTRF), JAK1; type: biochemical; conditions: JAK1, 90 μM ATP; read-out: EXAMPLE A JAK2-JAK1 HTRF-2 IC50
T3 construct: human JAK1 (a.a. 837-1142); His tag (N); made in house; host or cells: insect cells (baculovirus)
T3 sequence (P23458 849-1154): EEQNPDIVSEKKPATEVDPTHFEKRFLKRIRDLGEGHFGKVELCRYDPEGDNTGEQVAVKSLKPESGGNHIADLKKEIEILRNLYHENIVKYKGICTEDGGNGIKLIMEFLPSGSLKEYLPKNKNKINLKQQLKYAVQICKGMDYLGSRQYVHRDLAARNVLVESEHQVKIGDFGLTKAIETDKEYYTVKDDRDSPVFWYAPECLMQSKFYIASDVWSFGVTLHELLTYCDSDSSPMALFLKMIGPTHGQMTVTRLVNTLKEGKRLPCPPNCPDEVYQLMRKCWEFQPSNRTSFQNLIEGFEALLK
Procedure: as §1

[5] = target: TF1-BCRABL1 cells (Homo sapiens, UniProt P00519); assay: ABL1 cell based assay: viability of ABL1-dependent cell line (CellTiter-Glo); conditions: 72 hours, cell viability; read-out: EXAMPLE F JAK2-TF1-BCRABL1 IC50
Chain of TF1-BCRABL1 cells (P00519 whole entry, change not shown): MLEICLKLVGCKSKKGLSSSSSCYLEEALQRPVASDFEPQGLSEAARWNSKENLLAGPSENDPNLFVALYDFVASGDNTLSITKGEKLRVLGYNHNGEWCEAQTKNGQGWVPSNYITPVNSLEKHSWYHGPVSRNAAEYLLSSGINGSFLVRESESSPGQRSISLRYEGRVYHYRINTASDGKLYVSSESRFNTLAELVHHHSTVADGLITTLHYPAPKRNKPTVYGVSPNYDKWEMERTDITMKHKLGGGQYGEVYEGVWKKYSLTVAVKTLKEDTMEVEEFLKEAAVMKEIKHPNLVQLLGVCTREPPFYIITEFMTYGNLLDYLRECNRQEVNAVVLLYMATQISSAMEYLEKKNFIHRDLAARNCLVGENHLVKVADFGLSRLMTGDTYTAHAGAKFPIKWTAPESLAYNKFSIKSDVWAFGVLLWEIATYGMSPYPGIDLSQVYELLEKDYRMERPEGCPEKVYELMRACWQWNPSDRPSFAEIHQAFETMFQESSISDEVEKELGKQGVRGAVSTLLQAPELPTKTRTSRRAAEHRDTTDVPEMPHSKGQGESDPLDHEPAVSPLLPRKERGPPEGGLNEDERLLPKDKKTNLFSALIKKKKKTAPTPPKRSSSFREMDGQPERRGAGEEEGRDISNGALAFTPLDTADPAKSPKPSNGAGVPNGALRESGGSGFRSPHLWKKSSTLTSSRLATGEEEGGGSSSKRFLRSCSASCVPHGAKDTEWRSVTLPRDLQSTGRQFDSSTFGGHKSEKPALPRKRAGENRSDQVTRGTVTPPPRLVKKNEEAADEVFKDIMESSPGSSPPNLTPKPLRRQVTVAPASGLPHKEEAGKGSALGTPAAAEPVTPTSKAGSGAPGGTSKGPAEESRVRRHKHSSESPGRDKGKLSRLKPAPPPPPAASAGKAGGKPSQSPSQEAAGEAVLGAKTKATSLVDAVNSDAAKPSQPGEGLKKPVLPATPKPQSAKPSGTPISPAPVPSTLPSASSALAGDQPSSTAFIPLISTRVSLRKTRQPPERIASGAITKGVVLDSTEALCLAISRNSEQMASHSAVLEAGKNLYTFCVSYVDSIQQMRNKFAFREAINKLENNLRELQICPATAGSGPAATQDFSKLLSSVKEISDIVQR
Procedure: One or more compounds herein were tested for inhibitory activity of ABL1 targets according to at least one of the following cellular assays.
Cancer cell lines dependent on ABL1 kinase activity for proliferation and/or survival were plated at 3000 cells per well (96 well plate format) in RPMI 1640, and 10% FBS. Compounds were added to the cells in DMSO/media (final concentration 0.2% DMSO) and incubated for 72 hours at 37° C., 5% CO2. The effect of compound on cell viability was assessed using the CellTiter-Glo Luminescent Cell Viability Assay (Promega) followed by TopCount (Perkin Elmer, Boston, Mass.) quantitation. ABL1-dependent cell lines can include those naturally dependent on ABL1 activity or those engineered to be dependent on ABL1 activity (e.g. BaF/3 cells). The latter can be generated using wild-type ABL1 or mutant ABL1 (such as T315I ABL1) so that the activity of compounds can be assessed against different variants of the ABL1 kinase. Potential off-target effects of compounds were measured in parallel using a non-ABL1 driven cell line with the same assay readout. […] All experiments were performed in duplicate or greater.

Row | IC50 [1] | IC50 [2] | IC50 [3] | IC50 [4] | SMILES | GI50 [5]
1 | ≤ 0.5 µM | 0.5 to 1 µM | ≤ 0.5 µM | ≤ 0.5 µM | Cc1ccc(C(=O)Nc2cccc(OC(F)(F)F)c2)cc1-c1ccc2c(c1)[nH]c1ncncc12 [Example 54, 4-methyl-3-(9H-pyrimido-[4,5-b]indol-7-yl)-N-[3-(trifluoromethoxy)phenyl]-benzamide] | ≤ 0.5 µM
2 | ≤ 0.5 µM | ≤ 0.5 µM | ≤ 0.5 µM | ≤ 0.5 µM | O=C(Nc1ccc(F)c(-c2ccc3c(c2)[nH]c2ncncc23)c1)c1cccc(C(F)(F)F)c1 [Example 13, N-[4-fluoro-3-(9H-pyrimido-[4,5-b]indol-7-yl)phenyl]-3-(trifluoromethyl)benzamide] | ≤ 0.5 µM
3 | > 1 µM | > 1 µM | ≤ 0.5 µM | ≤ 0.5 µM | Cc1ccc(NC(=O)c2cc(C(F)(F)F)ccc2C(F)(F)F)cc1-c1ccc2c(c1)[nH]c1ncncc12 [Example 7, N-[4-methyl-3-(9H-pyrimido[4,5-b]indol-7-yl)phenyl]-2,5-bis(trifluoromethyl)benzamide] | 0.5 to 1 µM
4 | ≤ 0.5 µM | > 1 µM | > 1 µM | ≤ 0.5 µM | Cc1ccc(NC(=O)c2cc(C(F)(F)F)cc(Cl)c2F)cc1-c1ccc2[nH]c3ncncc3c2c1 [Example 46, 3-chloro-2-fluoro-N-[4-methyl-3-(9H-pyrimido[4,5-b]indol-6-yl)phenyl]-5-(trifluoromethyl)-benzamide] | ≤ 0.5 µM
5 | ≤ 0.5 µM | – | ≤ 0.5 µM | ≤ 0.5 µM | O=C(Nc1ccc(Cl)c(-c2ccc3c(c2)[nH]c2ncncc23)c1)c1cccc(C(F)(F)F)c1 [Example 17, N-[4-chloro-3-(9H-pyrimido-[4,5-b]indol-7-yl)phenyl]-3-(trifluoromethyl)benzamide] | ≤ 0.5 µM
6 | ≤ 0.5 µM | – | ≤ 0.5 µM | ≤ 0.5 µM | Cc1ccc(NC(=O)c2cc(C(F)(F)F)ccc2F)cc1-c1ccc2c(c1)[nH]c1ncncc12 [Example 5, 2-fluoro-N-[4-methyl-3-(9H-pyrimido[4,5-b]indol-7-yl)-phenyl]-5-(trifluoromethyl)-benzamide] | ≤ 0.5 µM

Further lines, the molecule ahead of its results:

Row | SMILES | IC50 [1] | IC50 [2] | IC50 [3] | IC50 [4] | GI50 [5]
7 | Cc1ccc(C(=O)NCc2cc(F)ccc2F)cc1-c1ccc2c(c1)[nH]c1ncncc12 [Example 55, N-(2,5-difluorobenzyl)-4-methyl-3-(9H-pyrimido-[4,5-b]indol-7-yl)benzamide] | > 1 µM | 0.5 to 1 µM | ≤ 0.5 µM | > 1 µM | 0.5 to 1 µM
8 | Cc1ncc(NC(=O)c2cc(-n3cncn3)cc(C(F)(F)F)c2)cc1-c1ccc2c(c1)[nH]c1ncncc12 [Example 73, N-[6-methyl-5-(9H-pyrimido[4,5-b]indol-7-yl)pyridin-3-yl]-3-(1H-1,2,4-triazol-1-yl)-5-(trifluoromethyl)benzamide bis(trifluoroacetate)] | ≤ 0.5 µM | – | ≤ 0.5 µM | ≤ 0.5 µM | ≤ 0.5 µM
9 | Cc1ccc(NC(=O)c2cc(NCCCN(C)C)cc(C(F)(F)F)c2)cc1-c1ccc2c(c1)[nH]c1ncncc12 [Example 33, 3-{[3-(dimethylamino)propyl]-amino}-N-[4-methyl-3-(9H-pyrimido[4,5-b]indol-7-yl)-phenyl]-5-(trifluoromethyl)-benzamide] | ≤ 0.5 µM | – | ≤ 0.5 µM | ≤ 0.5 µM | ≤ 0.5 µM
10 | Cc1ncc(NC(=O)c2cc(-n3ccnc3)cc(C(F)(F)F)c2)cc1-c1ccc2c(c1)[nH]c1ncncc12 [Example 72, 3-(1H-imidazol-1-yl)-N-[6-methyl-5-(9H-pyrimido[4,5-b]indol-7-yl)pyridin-3-yl]-5-(trifluoromethyl)benzamide tris(trifluoroacetate)] | ≤ 0.5 µM | – | ≤ 0.5 µM | ≤ 0.5 µM | ≤ 0.5 µM
11 | Cc1ncc(NC(=O)c2cc(-n3cnc(C=O)c3)cc(C(F)(F)F)c2)cc1-c1ccc2c(c1)[nH]c1ncncc12 [Example 74, 3-(4-formyl-1H-imidazol-1-yl)-N-[6-methyl-5-(9H-pyrimido[4,5-b]indol-7-yl)pyridin-3-yl]-5-(trifluoromethyl)benzamide bis(trifluoroacetate)] | ≤ 0.5 µM | – | ≤ 0.5 µM | ≤ 0.5 µM | ≤ 0.5 µM
12 | Cc1ccc(NC(=O)c2cc(-n3cnc(CN(C)C)c3)cc(C(F)(F)F)c2)cc1-c1ccc2c(c1)[nH]c1ncncc12 [Example 25, 3-{4-[(dimethylamino)methyl]-1H-imidazol-1-yl}-N-[4-methyl-3-(9H-pyrimido[4,5-b]-indol-7-yl)phenyl]-5-(trifluoro-methyl)benzamide] | ≤ 0.5 µM | – | ≤ 0.5 µM | ≤ 0.5 µM | ≤ 0.5 µM
13 | CNCc1cn(-c2cc(C(=O)Nc3ccc(C)c(-c4ccc5c(c4)[nH]c4ncncc45)c3)cc(C(F)(F)F)c2)cn1 [Example 22, 3-4-[(Methylamino)methyl]-1H-imidazol-1-yl-N-[4-methyl-3-(9H-pyrimido[4,5-b]-indol-7-yl)phenyl]-5-(trifluoromethyl)benzamide tris(trifluoroacetate)] | ≤ 0.5 µM | – | ≤ 0.5 µM | ≤ 0.5 µM | ≤ 0.5 µM
14 | Cc1ncc(NC(=O)c2cc(-n3cnc(CO)c3)cc(C(F)(F)F)c2)cc1-c1ccc2c(c1)[nH]c1ncncc12 [Example 75, 3-[4-(hydroxymethyl)-1H-imidazol-1-yl]-N-[6-methyl-5-(9H-pyrimido[4,5-b]indol-7-yl)pyridin-3-yl]-5-(trifluoromethyl)benzamide tris(trifluoroacetate) (salt)] | ≤ 0.5 µM | – | ≤ 0.5 µM | ≤ 0.5 µM | ≤ 0.5 µM
15 | Cc1ccc(NC(=O)c2cc(-n3cnc(CO)c3)cc(C(F)(F)F)c2)cc1-c1ccc2c(c1)[nH]c1ncncc12 [Example 21, 3-[4-(Hydroxymethyl)-1H-imidazol-1-yl]-N-[4-methyl-3-(9H-pyrimido[4,5-b]indol-7-yl)phenyl]-5-(trifluoromethyl)benzamide bis(trifluoroacetate) (salt)] | ≤ 0.5 µM | – | ≤ 0.5 µM | ≤ 0.5 µM | ≤ 0.5 µM
16 | Cc1ncc(NC(=O)c2cc(NCCN(C)C)cc(C(F)(F)F)c2)cc1-c1ccc2c(c1)[nH]c1ncncc12 [Example 76, 3-[2-(dimethylamino)ethyl]amino-N-[6-methyl-5-(9H-pyrimido[4,5-b]indol-7-yl)pyridin-3-yl]-5-(trifluoromethyl)benzamide tris(trifluoroacetate)] | ≤ 0.5 µM | – | ≤ 0.5 µM | ≤ 0.5 µM | ≤ 0.5 µM
17 | Cc1ccc(NC(=O)c2cc(N3CCOCC3)cc(C(F)(F)F)c2)cc1-c1ccc2c(c1)[nH]c1ncncc12 [Example 27, N-[4-methyl-3-(9H-pyrimido-[4,5-b]indol-7-yl)phenyl]-3-morpholin-4-yl-5-(trifluoromethyl)benzamide] | ≤ 0.5 µM | – | ≤ 0.5 µM | ≤ 0.5 µM | ≤ 0.5 µM
